Entries after “also recorded” stand apart in the source; their conditions may differ. Structures can show the parent of a compound that is named as a salt.
What was measured:
LeptoM cells = test: Cell Viability Assay / growth after chelator treatment; format: cell-based, human; conditions: PC9-LeptoM and MDA231-LeptoM; in words
From the text: FIG. 16A-16L. Iron chelator treatment reduces CSF iron. (A) Experimental scheme. Mice were inoculated with 2×10^3 cells intrathecally on day 0. Treatment with either vehicle, DFO, or D-pen was commenced on either day 1 or day 7 and continued every third day for a total of 7 doses. (B) Chelators delivered intrathecally. DFO, Deferoxamine. D-Pen, D-Penicillamine. (C-F) Intracellular iron (C and E) and viability (D and F) of PC9-LeptoM cells and MDA231-LeptoM cells after treatment with chelators in different concentrations (0 μM, 1 μM, 10 μM and 100 μM). n=3-4 per group in each of two independent experiments. * indicates p<0.05, ** indicates p<0.01, ***indicates p<0.001, **** indicates p<0.0001 (unpaired t test). Data represent mean±SEM. (G) Growth of PC9-LeptoM tumor after treatment indicated in (A). Left: in vivo BLI imaging in day 28 post-inoculation. n=8-10 per group in each of two independent experiments. Right: Representative BLI images. **** indicates p<0.0001. Data represent mean±SEM. (H) Kaplan-Meier survival curve from (C) and (E). p<0.0001. (I and J) Total iron concentration measured in CSF samples of mice with treatment of chelators in PC9-LeptoM Model (I) in MDA231-LeptoM model (J). […]
Cell Viability Assay. […] The CellTiter-Glo Luminescent Cell Viability Assay (Promega G9241) was used to quantify viable cells in culture according to the manufacturer's protocols. […]

PC9-LeptoM cells = test: In vivo leptomeningeal metastasis assay, PC9-LeptoM model, intracisternal chelator treatment; set-up: species or system mouse

With `CC(=O)N(O)CCCCCNC(=O)CCC(=O)N(O)CCCCCNC(=O)CCC(=O)N(O)CCCCCN` [DFO, Deferoxamine mesylate] the “growth of the LeptoM cells” value (LeptoM cells) was “substantially suppressed; also recorded: dramatically suppressed”, the “[Fe]” value (PC9-LeptoM cells; total iron in CSF, early (day 0)) was 5.63 ± 0.70 µM and the “Median Survival” value (PC9-LeptoM cells; treatment begun early (day 0), every 3 days) was 52 ± 7 days.
